# Where “and” joins values, the source holds several entries; their conditions need not be identical. Identical values can stand only once. Like-named read-outs stand apart in the source and are kept apart here.
# Assays:
# [1] = system: mouse model of generalised seizure (tonic hind limb extensor convulsions); test: mini-MEST (maximal electroshock seizure threshold) test in the mouse; settings: 30 min post dose
# Procedure: The maximal electroshock seizure threshold (MEST) test is widely utilized preclinically to evaluate pro- or anti-convulsant properties of test compounds (Loscher et al., 1991).
# In the MEST test the ability of a drug to alter the seizure threshold current required to induce hind limb tonic extensor convulsions is measured according to an “up and down” method of shock titration (Kimball et al., 1957). An increase in seizure threshold is indicative of anti-convulsant effect.
# The ability of a test compound to alter the stimulus intensity, expressed as current (mA), required to induce the presence of tonic hind limb extensor convulsions, is assessed in the MEST.
# Naïve mice were acclimatized to the procedure room in their home cages for up to 7 days, with food and water available ad libitum.
# All animals were weighed at the beginning of the study and randomly assigned to treatment groups based on a mean distribution of body weight across groups.
# The first animal within a treatment group was given a shock at the expected or estimated CC50 current. For subsequent animals, the current was lowered or raised depending on the convulsions outcome from the preceding animal in log scale intervals.
# Data generated from each treatment group were used to calculate the CC50±SEM values for the treatment group.
# The test compound, described herein as Compound I, are as shown as Formula I. Test compound was administered at 150 mg/kg (i.p.) in a 1:2:17 ethanol:solutol:0.9% saline formulation.
# The data for each treatment group were recorded as the number of +'s and 0's at each current level employed and this information is then used to calculate the CC50 value (current required for 50% of the animals to show seizure behaviour)±standard error.
# Test compound effects were also calculated as percentage change in CC50 from the vehicle control group.
# Significant difference between drug-treated animals and controls were assessed according to Litchfield and Wilcoxon (1949).
# [2] = Bioanalysis of Compound I in plasma and brain (UPLC-MS/MS); format: in vivo, mice; settings: 150 mg/kg i.p., 30 min post-dose, mouse; for concentration at 30 min: ip, 150 mg/kg
# Procedure: Each animal was humanely killed immediately after production of a convulsion by destruction of the brain from striking the cranium, followed by the confirmation of permanent cessation of the circulation from decapitation under The Humane Killing of Animals under Schedule 1 to the Animals (Scientific Procedures) Act 1986. Terminal blood and brain collection were performed following decapitation.
# Blood was collected in Lithium-heparin tubes and centrifuged at 4° C. for 10 minutes at 1500×g. The resulting plasma was removed (>100 μL) and split into 2 aliquots of 0.5 mL Eppendorf tubes containing 10 μL of ascorbic acid (100 mg/mL) for stabilisation. Brains were removed, washed in saline and halved. Each half was placed into separate 2 mL screw cap cryovials, weighed and frozen on cardice.
# Bioanalysis experiments were carried out to determine the quantitative measurement of Compound I in plasma and brain.
# Six mice were dosed with Compound I at 150 mg/kg via intraperitoneal (i.p) injection. Sample analysis was performed 30 min post-dose using a sample volume of 40 μL. Following addition of internal standard (in acetonitrile) and Isopropanol samples were protein precipitated by addition of acetonitrile. Samples were centrifuged and supernatant transferred to a clean 96-well plate (with addition of Tween to minimise non-specific binding to plate materials), evaporated to dryness then reconstituted in suitable solvent. The extracts quantified by ultraperformance liquid chromatography-tandem mass spectromtry (UPLC-MS/MS).
# [3] = system: MES model of generalised seizure; settings: earlier filing WO 2020/104796; cited from earlier work
smiles,measurement,setting,value
"C=C(C)[C@@H]1C[C@H](O)C(C)=C[C@H]1c1c(O)cc(CCCC)cc1O [Compound I, (1′R,2′R,4′S)-4-butyl-5′-methyl-2′-(prop-1-en-2-yl)-1′,2′,3′,4′-tetrahydro-[1,1′-biphenyl]-2,4′,6-triol]",tonic hind limb convulsions in treatment group,"[1]; 150 mg/kg i.p., 6 animals",did not have any convulsions
same,CC50 +/- SEM (current required for 50% of the animals to show seizure behaviour),"[1]; 150 mg/kg i.p., N=6",>131 mA
same,Conc. in brain (individual animals; head: Plasma Conc.),[2]; brain,17.696 µM and 200.472 µM and 183.889 µM and 173.842 µM and 212.516 µM and 228.344 µM
same,concentration at 30 min,"[2]; brain, brain, n=6, read-out: Mean conc. in brain (head: Mean Plasma Conc.)",169 µM
same,concentration at 30 min,"[2]; plasma, plasma, n=6, read-out: Mean Plasma Conc.",255 µM
same,Plasma Conc. (individual animals),[2]; plasma,379.642 µM and 242.369 µM and 47.322 µM and 295.516 µM and 268.44 µM and 299.404 µM
"C=C(C)[C@@H]1CCC(C)=C[C@H]1c1c(O)cc(CCCC)cc1O [CBD-C4, Cannabidiol-C4]",anti-convulsant activity,[3],Therapeutic efficacy was shown
"CN1C(=O)CN=C(c2ccccc2)c2cc(Cl)ccc21 [Diazepam, diazepam, reference compound]",% change from vehicle (CC50),[1]; 2.5 mg/kg i.p.,291%

# Reference: patent publication US20240360060A1, “6-HYDROXY-CANNABIDIOL-C4” (GW RESEARCH LIMITED, priority 2021, published 2024)
